These results are taken from US9814865B2, “Coated medical device” (Cook Medical Technologies LLC, priority 2000, dated 2017).

The series is described as follows: physical adhesion test simulating introduction and deployment of paclitaxel-coated stents. In kind it is physicochemical. The settings on record: passed through water-filled guiding catheter, balloon-expanded, measured by spectrometry. From the text:
More particularly, the adhesion of paclitaxel to two types of stainless steel, grit abraded stents was compared to its adhesion to stents of those types whose surfaces had instead been plasma treated prior to the direct deposition of paclitaxel thereon (control stents). The coated stents of both types, that is, medical devices 10 of the present invention and control stents, were then subjected to a physical adhesion test which simulated the rate at which paclitaxel would be delivered during introduction and deployment of the stents in clinical use. The adhesion test involved passing each stent through a water-filled guiding catheter of appropriate diameter and inflating the balloon catheter to expand each stent to its intended diameter. The stents are already mounted before coating. The amount of paclitaxel remaining on each stent was then measured by spectrometry and compared to the amount of paclitaxel initially posited on each stent. Stents having surfaces 16 roughened or textured by abrasion with different abrasive grits 24 retained 84.1±10.2% of the paclitaxel originally applied, while stents having plasma treated surfaces retained only 44.3±8.7% of the paclitaxel originally applied (p<0.0001).

Consider `CC(=O)O[C@H]1C(=O)[C@@]2(C)[C@H]([C@H](OC(=O)c3ccccc3)[C@]3(O)C[C@H](OC(=O)[C@H](O)[C@@H](NC(=O)c4ccccc4)c4ccccc4)C(C)=C1C3(C)C)[C@]1(OC(C)=O)CO[C@@H]1C[C@@H]2O` [paclitaxel], for which the “paclitaxel originally applied retained on stent after adhesion test” value (stainless steel control stents with plasma treated surfaces, p<0.0001 vs abraded) was 44.3±8.7% and the “paclitaxel originally applied retained on stent after adhesion test” value (stainless steel stents, surfaces roughened or textured by abrasion with different abrasive grits) is 84.1±10.2%.
